The text below walks through data of EP4782437A1, “HETEROARYL COMPOUND, AND PREPARATION METHOD THEREFOR AND USE THEREOF IN MEDICINE” (Jiangsu Hengrui Pharmaceuticals Co., Ltd., priority 2023, dated 2025).

For orientation: IC50 means the concentration needed to halve the response being measured.

Read-outs that look alike come from different tables or passages of the source.

The target in experiment [1] is T1, BTK recombinant human protein (Homo sapiens, UniProt Q06187).
T1 construct: purchased Thermo PV3363
T1 sequence (Q06187 whole entry): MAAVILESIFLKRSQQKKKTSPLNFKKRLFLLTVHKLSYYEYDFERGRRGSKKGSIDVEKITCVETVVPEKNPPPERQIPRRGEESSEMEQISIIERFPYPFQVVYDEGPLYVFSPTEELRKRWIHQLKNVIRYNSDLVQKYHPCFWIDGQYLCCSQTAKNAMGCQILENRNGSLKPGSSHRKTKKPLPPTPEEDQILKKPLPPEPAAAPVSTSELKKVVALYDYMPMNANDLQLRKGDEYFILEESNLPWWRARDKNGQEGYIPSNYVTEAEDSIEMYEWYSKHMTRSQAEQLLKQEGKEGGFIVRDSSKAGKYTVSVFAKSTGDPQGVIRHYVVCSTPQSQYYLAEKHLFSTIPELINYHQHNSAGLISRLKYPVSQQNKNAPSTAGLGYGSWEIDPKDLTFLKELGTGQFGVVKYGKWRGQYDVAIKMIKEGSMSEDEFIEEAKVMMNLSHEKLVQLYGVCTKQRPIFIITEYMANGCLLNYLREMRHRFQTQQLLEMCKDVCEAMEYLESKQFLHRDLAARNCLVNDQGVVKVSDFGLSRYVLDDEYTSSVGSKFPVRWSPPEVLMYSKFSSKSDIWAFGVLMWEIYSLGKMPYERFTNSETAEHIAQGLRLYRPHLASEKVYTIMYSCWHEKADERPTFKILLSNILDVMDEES
Description: Inhibitory activity against BTK (HTRF KinEASE-TK kit). The format is biochemical. How it is done:
Test example 1: Inhibitory activity of compounds of the present disclosure against BTK • I. Experimental materials and instruments • 1. BTK recombinant human protein (Thermo, PV3363) • 2. HTRF KinEASE-TK kit (Cisbio, 62TK0PEC) • 3. 1 M MgCl2 (Thermo, AM9530G) • 4. 1 M MnCl2 (Sigma, M1787-100ML) • 5. Adenosine 5'-triphosphate (ATP) (New England Biolabs, P0756L) • 6. DTT 2M (Sangon Biotech, B645939) • 7. Ultrapure water (Invitrogen, 10977-015) • 8. OptiPlate-384, white opaque 384-well microplate (PerkinElmer, 6007290) • 9. 96-well round-bottom plate (Corning, 3788) • 10. Biochemical incubator (Shanghai Boxun Medical & Biological Instruments Co., Ltd., BSP-100) • 11. 15-mL centrifuge tube (Corning) • 12. Benchtop high-speed centrifuge (Changsha Yingtai Instrument Co., Ltd., TD4N) • 13. Multifunctional microplate reader (PerkinElmer, EnVision) • 14. Bravo liquid handling platform (Agilent Technologies, SGC120TH34702) • II. Experimental procedure
The HTRF KinEASE-TK kit is designed to detect changes in BTK enzyme activity based on two technologies, i.e., fluorescence resonance energy transfer and time-resolved fluorescence. The kit is operated in two stages: 1) enzyme reaction stage: the enzyme reaction is initiated by adding ATP, where the enzyme phosphorylates the substrate, and the compounds are then added to competitively bind to BTK against ATP, thereby inhibiting substrate phosphorylation; and 2) detection stage: after the enzyme reaction is complete, a detection reagent is added to terminate the reaction. Different groups on the phosphorylated substrate bind to the energy donor and energy acceptor, respectively, bringing the two into close proximity. During the instrumental readout, the energy donor is excited by an external light source, which enables resonance energy transfer to the proximal energy acceptor. The acceptor, in turn, becomes excited and emits light at a specific wavelength. Thus, changes in enzyme activity can be detected by measuring the signal values, and the inhibition rate of the compounds against the target enzyme can be calculated, thereby evaluating the inhibitory effect of the compounds on BTK enzyme activity.
Preparation of enzyme reaction buffer: 5× Kinase Buffer was diluted 5-fold with ultrapure water, and then the stock solutions of MgCl2, MnCl2 and DTT were added. The final composition of the buffer was as follows: 1× Kinase Buffer, 10 mM MgCl2, 1 mM MnCl2, and 1 mM DTT.
Preparation of 5 × BTK working solution: The BTK (5.17 µM) stock solution was removed from -20°C storage. Given that the BTK concentration in the enzyme reaction system was 2 nM and the concentration of the 5× working solution was 10 nM, the BTK stock solution was diluted 517-fold with the enzyme reaction buffer according to the volume required for the experiment. The diluted solution was then added to the 384-well plate at 2 µL per well. The plate was placed in a plate spinner and centrifuged at 2000 rpm for 1 minute to bring the liquid to the bottom of the wells.
[…]. Given that the SEB concentration in the enzyme reaction system was 50 nM and the concentration of the 5× working solution was 250 nM, the SEB stock solution was diluted 10-fold with the enzyme reaction buffer according to the volume required for the experiment. The diluted solution was then added to the 384-well plate at 2 µL per well. The plate was placed in a plate spinner and centrifuged at 2000 rpm for 1 minute to bring the liquid to the bottom of the wells.
The test compounds dissolved in 100% DMSO at 20 mM were diluted with 100% DMSO to a concentration of 200 µM, which represents the 200× concentration of the highest compound concentration point in the reaction system. The compounds at this concentration were then subjected to 10-point 3-fold serial dilution with 100% DMSO. The positive control wells and negative control wells were set with 100% DMSO. […]
(TR-FRET usually uses a lanthanide donor and a delayed reading to cut background.)

In experiment [2] the test system is B cell activation in human whole blood. Description: Inhibition of B cell activation in human whole blood (CD69 expression, flow cytometry). The format is cell-based. The conditions noted are these: anti-human IgD 30 µg/ml + IL-4 5 ng/ml, 18 hours, CD69-positive CD19-positive B cells, read-out: IC50 values of inhibitory activity against B cell activation in human whole blood. From the text: Test example 2: Inhibitory activity of compounds of the present disclosure against B cell activation in human whole blood • I. Experimental materials and instruments • 1. Human whole blood (internal recruitment) • 2. Goat F(ab')2 anti-human IgD-UNLB (SouthernBiotech, 2032-01) • 3. DPBS (1x) (Gibco, 14190-144) • 4. Recombinant human IL-4 (Peprotech, 200-04) • 5. Brilliant Violet 421™ anti-human CD19 antibody (Biolegend, 302234) • 6. APC anti-human CD69 antibody (Biolegend, 310910) • 7. APC mouse IgG1, κ isotype control antibody (Biolegend, 400120) • 8. eBioscience™ 10X RBC lysis buffer (multi-species) (Thermo, 004300-54) • 9. NEST 96-well deep-well plate (Wuxi NEST Biotechnology Co., Ltd., 503501) • 10. 96-well round-bottom plate (Corning, 3788) • 11. 96-well flat-bottom plate (Corning, 3599) • 12. Attune™ NxT acoustic focusing cytometer (ThermoFisher Scientific, 4.2.0) • 13. Cell incubator (Thermo, Forma steri-cycle i160) • II. Experimental procedure
B cells express the B cell receptor (BCR) complex on their surface. When B cells in human whole blood are induced to activate, they can trigger the downstream signalling pathways of the receptor and express the activation marker CD69. The expression of CD69 in activated B cells was detected by flow cytometry, and the IC50 of the compounds were calculated to evaluate the effects of the compounds on BCR activation.
The test compounds dissolved in 100% DMSO at 20 mM were diluted with 100% DMSO to a concentration of 1 mM, which represents the 200× concentration of the highest compound concentration point in the reaction system. The compounds at this concentration were then subjected to 8-point 4-fold serial dilution with 100% DMSO. The positive control wells were set with 100% DMSO, whereas the negative control wells were set with Remiburtinib at a final concentration of 5 µM. The serially diluted compounds and 100% DMSO were further diluted 10-fold in PBS to achieve the 20× concentration, followed by thorough mixing.
After thorough mixing, the whole blood sample was transferred to a loading reservoir and then dispensed into a 96-well flat-bottom plate at 80 µl per well. The compound dilution was dispensed at 5 µl per well. The 11th column of each row was designated as the negative control well, with 5 µl of 100 µM positive control drug added to each well. After thorough mixing for 5 min, the plate was incubated in a 37°C incubator for 30 min. Human IgD antibody was diluted 1.67-fold with PBS to a concentration of 300 µg/mL, and 10 µl of the diluted solution was added to each well of the culture plate (final concentration: 30 µg/ml). Human IL-4 (stock solution at 50 µg/ml) was diluted 500-fold with PBS to a concentration of 100 ng/mL, and 5 µl of the diluted solution was added to each well of the culture plate (final concentration: 5 ng/ml). After thorough mixing for 5 min, the plate was cultured in a 37°C incubator with 5% CO2 for 18 hours.
Flow cytometry detection: CD69-APC, CD19-BV421 and CD4-APC antibodies, and the isotype control antibodies for CD69-APC were removed from 4°C storage. Each antibody was added at 1 µl per well. After thorough mixing for 5 min, the plate was incubated for 30 min at 4°C (refrigerator) in the dark for staining. The 10X RBC lysis buffer was diluted in water to prepare 1X RBC lysis buffer. Aliquots of 1 ml of the lysis buffer were dispensed into each well of a 96-well deep-well plate in advance. The stained samples were transferred into the deep-well plate containing the lysis buffer for erythrocyte lysis. After completing the transfer of an entire plate, the plate was incubated in the dark for 15-20 min. Upon completion of lysis, the plate was centrifuged at 2000 rpm for 4 min. Each well was washed with 1 ml of PBS. Subsequently, the cells were resuspended in 200 µl of PBS, transferred to a 96-well plate, and washed twice more using the same procedure. The samples were resuspended in 200 µl of PBS per well and then subjected to flow cytometry detection. […]

[3] abbreviates: 2 nM BTK, 10 µM ATP, 0.5 hours preincubation at 25°C; read-out: IC50 values of inhibitory activity against BTK.
[4] abbreviates: read-out: IC50 values of inhibitory activity against BTK; 2 nM BTK, 10 µM ATP, 0.5 hours preincubation at 25°C.

In the case of `C=CC(=O)N(C)CCOc1c(N)ncnc1-c1cc(F)cc(NC(=O)c2ccc3c(c2F)OCC32CC2)c1C` [Example 5, N-(3-(6-amino-5-(2-(N-methacrylamido)ethoxy)pyrimidin-4-yl)-5-fluoro-2-methylphenyl)-7-fluoro-2H-spiro[benzofuran-3,1'-cyclopropane]-6-carboxamide], the half-maximal inhibitory concentration (IC50) in experiment [1] (setting [3]) was 6.9 nM; in experiment [2], 10 to 100 nM.
Taken in the same sequence, the figures for `C=CC(=O)N(C)CCOc1c(N)ncnc1-c1cc(F)cc(NC(=O)c2cc3c(cc2F)C2(CC3)CC2)c1C` [Example 1, N-(3-(6-amino-5-(2-(N-methacrylamido)ethoxy)pyrimidin-4-yl)-5-fluoro-2-methylphenyl)-6'-fluoro-2',3'-dihydrospiro[cyclopropane-1,1'-indene]-5'-carboxamide] were 6.09 nM and 10 to 100 nM.
As for `C=CC(=O)N(C)CCOc1c(N)ncnc1-c1cc(F)cc(NC(=O)c2cc3c(cc2F)C2(CC3)CC2)c1CO` [Example 11, N-(3-(6-amino-5-(2-(N-methacrylamido)ethoxy)pyrimidin-4-yl)-5-fluoro-2-(hydroxymethyl)phenyl)-6'-fluoro-2',3'-dihydrospiro[cyclopropane-1,1'-indene]-5'-carboxamide], the IC50 in experiment [1] (setting [4]) is 4.2 nM; in experiment [2], 10 to 100 nM.
For `C=CC(=O)N(C)CCOc1c(N)ncnc1-c1cc(F)cc(NC(=O)c2ccc3c(c2F)OC(C)(C)C3)c1C` [Example 4, N-(3-(6-amino-5-(2-(N-methacrylamido)ethoxy)pyrimidin-4-yl)-5-fluoro-2-methylphenyl)-7-fluoro-2,2-dimethyl-2,3-dihydrobenzofuran-6-carboxamide], the IC50 in experiment [1] (setting [4]) is 5.1 nM; in experiment [2] it was 10 to 100 nM.
Turning to `C=CC(=O)N(C)CCOc1c(N)ncnc1-c1cc(F)cc(NC(=O)c2sc3c(c2F)C2(CC3)CC2)c1C` [Example 26-2, N-(3-(6-amino-5-(2-(N-methacrylamido)ethoxy)pyrimidin-4-yl)-5-fluoro-2-methylphenyl)-3-fluoro-5,6-dihydrospiro[cyclopenta[b]thiophene-4,1'-cyclopropane]-2-carboxamide], in experiment [1] (setting [4]), the IC50 was 6.15 nM.
Take `[2H]C([2H])([2H])N(CCOc1c(N)ncnc1-c1cc(F)cc(NC(=O)c2cc3c(cc2F)C2(CC2)CO3)c1C)C(=O)C=C` [Example 17, N-(3-(6-amino-5-(2-(N-(methyl-d3)acrylamido)ethoxy)pyrimidin-4-yl)-5-fluoro-2-methylphenyl)-5-fluoro-2H-spiro[benzofuran-3,1'-cyclopropane]-6-carboxamide]: the IC50 in experiment [1] (setting [3]) is 5.74 nM; in experiment [2], 10 to 100 nM.
As for `C=CC(=O)N(C)CCOc1c(N)ncnc1-c1cc(F)cc(NC(=O)c2sc3c(c2F)CC(C)(C)C3)c1C` [Example 6, N-(3-(6-amino-5-(2-(N-methacrylamido)ethoxy)pyrimidin-4-yl)-5-fluoro-2-methylphenyl)-3-fluoro-5,5-dimethyl-5,6-dihydro-4H-cyclopenta[b]thiophene-2-carboxamide], the IC50 in experiment [1] (setting [4]) came to 6.3 nM.
As for `[2H]C([2H])([2H])N(CCOc1c(N)ncnc1-c1cc(F)cc(NC(=O)c2cc3c(cc2F)C2(CC3)CC2)c1C)C(=O)C=C` [Example 19, N-(3-(6-amino-5-(2-(N-(methyl-d3)acrylamido)ethoxy)pyrimidin-4-yl)-5-fluoro-2-methylphenyl)-6'-fluoro-2',3'-dihydrospiro[cyclopropane-1,1'-indene]-5'-carboxamide], the IC50 is 8.99 nM in experiment [1] (setting [3]) and 10 to 100 nM in experiment [2].
In the case of `C=CC(=O)N(C)CCOc1c(N)ncnc1-c1cc(F)cc(NC(=O)c2ccc(C3(C)CC3)cc2F)c1C` [Example 2, N-(3-(6-amino-5-(2-(N-methacrylamido)ethoxy)pyrimidin-4-yl)-5-fluoro-2-methylphenyl)-2-fluoro-4-(1-methylcyclopropyl)benzamide], the IC50 in experiment [2] fell in the range of 10 to 100 nM.
On to `C=CC(=O)N1C[C@H](OC)C[C@H]1COc1c(N)ncnc1-c1cc(F)cc(NC(=O)c2ccc3c(c2F)OCC3(C)C)c1C` [Example 33, N-(3-(5-(((2S,4R)-1-acryloyl-4-methoxypyrrolidin-2-yl)methoxy)-6-aminopyrimidin-4-yl)-5-fluoro-2-methylphenyl)-7-fluoro-3,3-dimethyl-2,3-dihydrobenzofuran-6-carboxamide], for which the half-maximal inhibitory concentration (IC50) in experiment [1] (setting [3]) came to 1.25 nM.
As to `C=CC(=O)N(C)CCOc1c(N)ncnc1-c1cc(F)cc(NC(=O)c2ccc3c(c2F)OC2(CC2)C3)c1C` [Example 20], the concentration for half-maximal inhibition (IC50) in experiment [2] fell in the range of 10 to 100 nM.
